The results in this text go back to PubChem BioAssay (NCI).

Values joined by “and” are separate entries in the source; they are usually repeats but may differ in a detail not shown here. Identical values can stand only once.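 Protocol summary: plate cells (96-well), add compound at 5 concentrations, incubate 48 h, interpolate endpoints linearly. The concentration for 50% growth inhibition is given as GI50. At the TGI there is no net growth.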

The test system of the first assay is NCI/ADR-RES ovarian. The assay is described as follows: growth of human tumour cells (NCI), 48 h.
Consider `COc1cccc2c1OCC1Cc3ccccc3OC21` (centres undefined), for which the TGI is more than 100 µM.
As for `C=CCN1C(=O)/C(=C/c2ccc(C)cc2)N=C1SC1OC(COC(C)=O)C(OC(C)=O)C(OC(C)=O)C1OC(C)=O` (centres undefined), the GI50 was > 100 µM and 32.5 µM; the TGI is more than 100 µM.
Turning to `CC(C)C(N)C(=O)NC(CCC(=O)NCCCCC(N)C(=O)NCCCNc1ccc([N+](=O)[O-])c2[nH]c3ccccc3c(=O)c12)C(N)=O` (centres undefined), the TGI was more than 100 µM.
On the same count and under the same terms, for `CC#CC(O)(C(=O)OC1CC(C)N(C)C(C)(C)C1)C1CCCC1` (centres undefined) the value was 93.6 µM; for `CC1(C)OC2COC3([C@@H]4OC(C)(C)O[C@@H]4CO)OC(C)(C)OC3C2O1` (some centres undefined), more than 100 µM.
`C[C@H]1OC(=O)[C@@H]2N=NN(Cc3ccccc3)[C@H]12` gave a TGI of more than 100 µM.
As to `C[C@]12CC[C@@H]3c4ccc(O)cc4CC[C@H]3[C@@H]1C/C(=C\c1ccc(C#N)cc1)C2=O`, the TGI is more than 100 µM.
Same read-out and setting: for `O=[N+]([O-])/C(Cl)=C(\NCCN/C(C(Cl)=C(Cl)Cl)=C(/Cl)[N+](=O)[O-])C(Cl)=C(Cl)Cl` the value was more than 100 µM; for `S=C1NC2=C(CSC/C2=C\c2ccccc2)C(c2ccccc2)N1` (centres undefined), more than 100 µM; for `CSc1nc2c(ncn2C2OC(CO)C(O)C(O)C2O)c(=O)[nH]1` (centres undefined), more than 100 µM.
With `COc1cc(C2c3cc4c(cc3[C@@H](Nc3ccc5c(c3)OCO5)C3COC(=O)[C@H]23)OCO4)cc(OC)c1O` (some centres undefined), the TGI came to 41.6 µM.

The next assay deals with SK-MEL-2 melanoma. The assay can be described thus: growth of human tumour cells (NCI), 48 h.
The compound `N#C/C(=C1\SC(N=Nc2ccc(Cl)cc2)C(=O)N1c1ccccc1)c1nc2ccccc2[nH]1` (centres undefined) yielded a TGI of 62 µM.
Same read-out and setting: to `CCOC(=O)c1c(SCCN2CCOCC2)n(-c2ccccc2)c(=S)n(-c2ccccc2)c1=O` belongs more than 100 µM; to `O=C(NN1C(=O)CSC1c1cccc(F)c1)c1ccncc1` (centres undefined), more than 100 µM; to `COc1cccc2c1OCC1Cc3ccccc3OC21` (centres undefined), more than 100 µM.
On to `C=CCN1C(=O)/C(=C/c2ccc(C)cc2)N=C1SC1OC(COC(C)=O)C(OC(C)=O)C(OC(C)=O)C1OC(C)=O` (centres undefined), for which the GI50 is > 100 µM and 38.3 µM; the TGI is more than 100 µM.
As to `CC(C)C(N)C(=O)NC(CCC(=O)NCCCCC(N)C(=O)NCCCNc1ccc([N+](=O)[O-])c2[nH]c3ccccc3c(=O)c12)C(N)=O` (centres undefined), the TGI is more than 100 µM.
The same measure, in the same setting: to `CC1(C)OC2COC3([C@@H]4OC(C)(C)O[C@@H]4CO)OC(C)(C)OC3C2O1` (some centres undefined) belongs more than 100 µM; to `c1ccc2[nH]c(CNc3ccc(C4C[Se]N=N4)cc3)nc2c1` (centres undefined), more than 100 µM; to `COc1cc(/C=C2\CCC(C)/C(=C\c3cc(OC)c(OC)c(OC)c3)C2=O)cc(OC)c1OC` (centres undefined), 3.37 µM.
Same read-out and setting: to `C[C@H]1OC(=O)[C@@H]2N=NN(Cc3ccccc3)[C@H]12` belongs more than 100 µM; to `Cc1ccc2oc(=O)c(-c3ccccc3)nc2c1`, 43.8 µM; to `O=C(O)/C=C\C(=O)Nc1ccc(S(=O)(=O)c2ccc(NC(=O)/C=C\C(=O)O)cc2)cc1`, more than 100 µM.
The same measure, in the same setting: to `C[C@]12CC[C@@H]3c4ccc(O)cc4CC[C@H]3[C@@H]1C/C(=C\c1ccc(C#N)cc1)C2=O` belongs more than 100 µM; to `S=C1NC2=C(CSC/C2=C\c2ccccc2)C(c2ccccc2)N1` (centres undefined), more than 100 µM.
Regarding `CSc1nc2c(ncn2C2OC(CO)C(O)C(O)C2O)c(=O)[nH]1` (centres undefined), the TGI is more than 100 µM.
On the same count and under the same terms, for `Nc1ccccc1C(=O)C(Br)C(Br)c1ccc2c(c1)OCO2` (centres undefined) the value was 35.2 µM; for `CCCCCCCCCCCC1CC(=O)NCCCN(C)CCCCN(C)CCCN1C` (centres undefined), 3.16 µM.
On the same count and under the same terms, for `COc1cc(C2c3cc4c(cc3[C@@H](Nc3ccc5c(c3)OCO5)C3COC(=O)[C@H]23)OCO4)cc(OC)c1O` (some centres undefined) the value was 5.96 µM.

The next assay relates to HS 578T breast. The assay is described as follows: growth of human tumour cells (NCI), 48 h.
In turn, `CCOC(=O)c1c(SCCN2CCOCC2)n(-c2ccccc2)c(=S)n(-c2ccccc2)c1=O` gave a TGI of 87.4 µM.
On the same count and under the same terms, for `Cc1cccc(/C(Br)=C2/OC(=O)c3ccccc32)c1` the value was more than 100 µM.
As to `COc1cc(/C=C2\CCC(C)/C(=C\c3cc(OC)c(OC)c(OC)c3)C2=O)cc(OC)c1OC` (centres undefined), the TGI was more than 100 µM.
Turning to `CC(=O)Oc1c(C)c(C)c2c(c1C)CCC(C)(CC(=O)OCCCCCCCCCCC[P+](c1ccccc1)(c1ccccc1)c1ccccc1)O2` (centres undefined), the GI50 is 0.413 µM and the TGI turned out to be 3.28 µM.

The test system of another assay is HOP-62 NSCLC. The assay can be described thus: growth of human tumour cells (NCI), 48 h.
`N#C/C(=C1\SC(N=Nc2ccc(Cl)cc2)C(=O)N1c1ccccc1)c1nc2ccccc2[nH]1` (centres undefined) registered a TGI of 35.4 µM.
Still for that read-out and setting: for `COc1cccc2c1OCC1Cc3ccccc3OC21` (centres undefined) the value was more than 100 µM.
For the compound `C=CCN1C(=O)/C(=C/c2ccc(C)cc2)N=C1SC1OC(COC(C)=O)C(OC(C)=O)C(OC(C)=O)C1OC(C)=O` (centres undefined), the GI50 was 5.17 µM and 47.4 µM; the TGI is more than 100 µM.
`CC(C)C(N)C(=O)NC(CCC(=O)NCCCCC(N)C(=O)NCCCNc1ccc([N+](=O)[O-])c2[nH]c3ccccc3c(=O)c12)C(N)=O` (centres undefined): the TGI was more than 100 µM.
Compound `Cc1cccc(/C(Br)=C2/OC(=O)c3ccccc32)c1` came in with a TGI of more than 100 µM.
The same measure, in the same setting: to `CC#CC(O)(C(=O)OC1CC(C)N(C)C(C)(C)C1)C1CCCC1` (centres undefined) belongs more than 100 µM; to `CC1(C)OC2COC3([C@@H]4OC(C)(C)O[C@@H]4CO)OC(C)(C)OC3C2O1` (some centres undefined), more than 100 µM.
Still for that read-out and setting: to `c1ccc2[nH]c(CNc3ccc(C4C[Se]N=N4)cc3)nc2c1` (centres undefined) belongs more than 100 µM; to `COc1cc(/C=C2\CCC(C)/C(=C\c3cc(OC)c(OC)c(OC)c3)C2=O)cc(OC)c1OC` (centres undefined), 9.3 µM; to `C[C@H]1OC(=O)[C@@H]2N=NN(Cc3ccccc3)[C@H]12`, more than 100 µM.
Same read-out and setting: for `Cc1ccc2oc(=O)c(-c3ccccc3)nc2c1` the value was more than 100 µM; for `O=C(O)/C=C\C(=O)Nc1ccc(S(=O)(=O)c2ccc(NC(=O)/C=C\C(=O)O)cc2)cc1`, more than 100 µM.
On to `C[C@]12CC[C@@H]3c4ccc(O)cc4CC[C@H]3[C@@H]1C/C(=C\c1ccc(C#N)cc1)C2=O`, for which the TGI is more than 100 µM.
Still for that read-out and setting: for `O=[N+]([O-])/C(Cl)=C(\NCCN/C(C(Cl)=C(Cl)Cl)=C(/Cl)[N+](=O)[O-])C(Cl)=C(Cl)Cl` the value was more than 100 µM; for `S=C1NC2=C(CSC/C2=C\c2ccccc2)C(c2ccccc2)N1` (centres undefined), more than 100 µM; for `COc1ccc(/C=N/n2c(C)nc3c(sc(=S)n3-c3ccccc3)c2=O)cc1`, more than 100 µM.
On the same count and under the same terms, for `CSc1nc2c(ncn2C2OC(CO)C(O)C(O)C2O)c(=O)[nH]1` (centres undefined) the value was more than 100 µM.
The compound `Nc1ccccc1C(=O)C(Br)C(Br)c1ccc2c(c1)OCO2` (centres undefined) came in with a TGI of 51 µM.
Same read-out and setting: to `CCCCCCCCCCCC1CC(=O)NCCCN(C)CCCCN(C)CCCN1C` (centres undefined) belongs 3.04 µM; to `COc1cc(C2c3cc4c(cc3[C@@H](Nc3ccc5c(c3)OCO5)C3COC(=O)[C@H]23)OCO4)cc(OC)c1O` (some centres undefined), 0.715 µM.

The next assay relates to RPMI-8226 leukemia. The assay is described as follows: growth of human tumour cells (NCI), 48 h.
Compound `CCOC(=O)c1c(SCCN2CCOCC2)n(-c2ccccc2)c(=S)n(-c2ccccc2)c1=O` registered a TGI of 94.1 µM.
Still for that read-out and setting: for `O=C(NN1C(=O)CSC1c1cccc(F)c1)c1ccncc1` (centres undefined) the value was more than 100 µM.
On the same count and under the same terms, for `COc1cccc2c1OCC1Cc3ccccc3OC21` (centres undefined) the value was more than 100 µM.
Take `C=CCN1C(=O)/C(=C/c2ccc(C)cc2)N=C1SC1OC(COC(C)=O)C(OC(C)=O)C(OC(C)=O)C1OC(C)=O` (centres undefined): the GI50 is > 100 µM and 20.2 µM; the TGI was more than 100 µM.
The compound `CC(C)C(N)C(=O)NC(CCC(=O)NCCCCC(N)C(=O)NCCCNc1ccc([N+](=O)[O-])c2[nH]c3ccccc3c(=O)c12)C(N)=O` (centres undefined) registered a TGI of more than 100 µM.
Still for that read-out and setting: to `Cc1cccc(/C(Br)=C2/OC(=O)c3ccccc32)c1` belongs more than 100 µM; to `CC#CC(O)(C(=O)OC1CC(C)N(C)C(C)(C)C1)C1CCCC1` (centres undefined), more than 100 µM; to `CC1(C)OC2COC3([C@@H]4OC(C)(C)O[C@@H]4CO)OC(C)(C)OC3C2O1` (some centres undefined), more than 100 µM.
Same read-out and setting: for `c1ccc2[nH]c(CNc3ccc(C4C[Se]N=N4)cc3)nc2c1` (centres undefined) the value was 81.3 µM.
Same read-out and setting: for `COc1cc(/C=C2\CCC(C)/C(=C\c3cc(OC)c(OC)c(OC)c3)C2=O)cc(OC)c1OC` (centres undefined) the value was 0.901 µM; for `C[C@H]1OC(=O)[C@@H]2N=NN(Cc3ccccc3)[C@H]12`, more than 100 µM; for `Cc1ccc2oc(=O)c(-c3ccccc3)nc2c1`, more than 100 µM.
For the compound `O=C(O)/C=C\C(=O)Nc1ccc(S(=O)(=O)c2ccc(NC(=O)/C=C\C(=O)O)cc2)cc1`, the TGI is more than 100 µM.
Still for that read-out and setting: to `C[C@]12CC[C@@H]3c4ccc(O)cc4CC[C@H]3[C@@H]1C/C(=C\c1ccc(C#N)cc1)C2=O` belongs more than 100 µM; to `O=[N+]([O-])/C(Cl)=C(\NCCN/C(C(Cl)=C(Cl)Cl)=C(/Cl)[N+](=O)[O-])C(Cl)=C(Cl)Cl`, 65.8 µM.
In turn, `S=C1NC2=C(CSC/C2=C\c2ccccc2)C(c2ccccc2)N1` (centres undefined) gave a TGI of more than 100 µM.
On the same count and under the same terms, for `COc1ccc(/C=N/n2c(C)nc3c(sc(=S)n3-c3ccccc3)c2=O)cc1` the value was more than 100 µM; for `CSc1nc2c(ncn2C2OC(CO)C(O)C(O)C2O)c(=O)[nH]1` (centres undefined), more than 100 µM.
The same measure, in the same setting: to `Nc1ccccc1C(=O)C(Br)C(Br)c1ccc2c(c1)OCO2` (centres undefined) belongs more than 100 µM; to `CCCCCCCCCCCC1CC(=O)NCCCN(C)CCCCN(C)CCCN1C` (centres undefined), 4.09 µM.
Turning to `CC(=O)Oc1c(C)c(C)c2c(c1C)CCC(C)(CC(=O)OCCCCCCCCCCC[P+](c1ccccc1)(c1ccccc1)c1ccccc1)O2` (centres undefined), the GI50 is 0.237 µM and the TGI amounted to 1.15 µM.
In turn, `COc1cc(C2c3cc4c(cc3[C@@H](Nc3ccc5c(c3)OCO5)C3COC(=O)[C@H]23)OCO4)cc(OC)c1O` (some centres undefined) registered a TGI of 8.59 µM.

In a further assay the test system is EKVX NSCLC. The assay can be described thus: growth of human tumour cells (NCI), 48 h.
On to `N#C/C(=C1\SC(N=Nc2ccc(Cl)cc2)C(=O)N1c1ccccc1)c1nc2ccccc2[nH]1` (centres undefined), for which the TGI was more than 100 µM.
In turn, `O=C(NN1C(=O)CSC1c1cccc(F)c1)c1ccncc1` (centres undefined) gave a TGI of more than 100 µM.
Same read-out and setting: for `COc1cccc2c1OCC1Cc3ccccc3OC21` (centres undefined) the value was more than 100 µM; for `C=CCN1C(=O)/C(=C/c2ccc(C)cc2)N=C1SC1OC(COC(C)=O)C(OC(C)=O)C(OC(C)=O)C1OC(C)=O` (centres undefined), more than 100 µM; for `CC(C)C(N)C(=O)NC(CCC(=O)NCCCCC(N)C(=O)NCCCNc1ccc([N+](=O)[O-])c2[nH]c3ccccc3c(=O)c12)C(N)=O` (centres undefined), more than 100 µM.
On the same count and under the same terms, for `Cc1cccc(/C(Br)=C2/OC(=O)c3ccccc32)c1` the value was more than 100 µM.
Same read-out and setting: for `CC#CC(O)(C(=O)OC1CC(C)N(C)C(C)(C)C1)C1CCCC1` (centres undefined) the value was more than 100 µM; for `CC1(C)OC2COC3([C@@H]4OC(C)(C)O[C@@H]4CO)OC(C)(C)OC3C2O1` (some centres undefined), more than 100 µM.
